Measurements: PubChem BioAssay AID212 (DTP/NCI, 2004)
Where “and” joins values, the source holds several entries; their conditions need not be identical. Equal values may be shown once. Inconclusive results are not listed.

Test system: BDF1 mice, colon carcinoma 38 sc, T/C %
Assay: NCI In Vivo Anticancer Drug Screen. Data for tumor model Colon Carcinoma 38 (subcutaneous) in B6D2F1 (BDF1) mice
Experimental: The antitumor activity of compounds was measured in mice bearing transplantable tumors. Survival or tumor size were measured and the results are expressed as the measurement made in the treated group (T) divided by the measurement made in the vehicle treated control group (C). The tumor model used in this assay is Colon Carcinoma 38 (subcutaneous) in B6D2F1 (BDF1) mice

[1] = endpoint: median tumor weight (est.), dose: 50.0 mg/kg/injection, schedule: Q07DX002 (ip), vehicle: saline with Tween-80, higher = larger tumour
[2] = endpoint: median tumor weight (est.), dose: 200.0 mg/kg/injection, schedule: Q07DX002 (ip), vehicle: saline with Tween-80, higher = larger tumour
[3] = endpoint: median tumor weight (est.), dose: 6.25 mg/kg/injection, schedule: Q07DX002 (ip), vehicle: saline with Tween-80, higher = larger tumour
[4] = endpoint: median tumor weight (est.), dose: 12.5 mg/kg/injection, schedule: Q07DX002 (ip), vehicle: saline with Tween-80, higher = larger tumour
[5] = endpoint: median tumor weight (est.), dose: 100.0 mg/kg/injection, schedule: Q07DX002 (ip), vehicle: saline with Tween-80, higher = larger tumour

`CC(=O)Oc1[nH]c(=O)c2cccc3c2c1CCC3` was tested, and the T/C [1] was 161 % of control, the T/C [2] was 118 % of control and the T/C (endpoint: median tumor weight (est.), dose: 400.0 mg/kg/injection, schedule: Q07DX002 (ip), vehicle: saline with Tween-80, higher = larger tumour) was 122 % of control. For the same compound, the T/C (endpoint: median tumor weight (est.), dose: 1600.0 mg/kg/injection, schedule: Q07DX002 (ip), vehicle: saline with Tween-80, higher = larger tumour) was 118 % of control.
`CCCCCCCC(=O)N/N=C(\CO)[C@]1(O)Cc2c(O)c3c(c(O)c2[C@@H](OC2CC(N)C(O)C(C)O2)C1)C(=O)c1c(OC)cccc1C3=O` (stereo partly drawn) was tested, and the T/C (endpoint: median survival time, dose: 30.0 mg/kg/injection, schedule: Q07DX002 (sc), vehicle: saline, higher = longer survival) was 100 % of control, the T/C (endpoint: median survival time, dose: 48.0 mg/kg/injection, schedule: Q07DX002 (sc), vehicle: saline, higher = longer survival) was 75 % of control and the T/C (endpoint: median survival time, dose: 126.0 mg/kg/injection, schedule: Q07DX002 (sc), vehicle: saline, higher = longer survival) was 105 % of control. The T/C (endpoint: median tumor weight (est.), dose: 6.75 mg/kg/injection, schedule: Q07DX002 (ip), vehicle: distilled water + Tween-80, higher = larger tumour) was 84 % of control, the T/C (endpoint: median tumor weight (est.), dose: 6.75 mg/kg/injection, schedule: Q07DX002 (ip), vehicle: suspension in saline, higher = larger tumour) was 97 % of control and the T/C (endpoint: median tumor weight (est.), dose: 13.5 mg/kg/injection, schedule: Q07DX002 (ip), vehicle: suspension in saline, higher = larger tumour) was 73 % of control. For the same compound, the T/C (endpoint: median tumor weight (est.), dose: 27.0 mg/kg/injection, schedule: Q07DX002 (ip), vehicle: suspension in saline, higher = larger tumour) was 101 % of control, the T/C (endpoint: median tumor weight (est.), dose: 54.0 mg/kg/injection, schedule: Q07DX002 (ip), vehicle: distilled water + Tween-80, higher = larger tumour) was 18 % of control and 41 % of control and the T/C (endpoint: median tumor weight (est.), dose: 54.0 mg/kg/injection, schedule: Q07DX002 (ip), vehicle: suspension in saline, higher = larger tumour) was 58 % of control.
In the case of `COc1cccc2c1C(=O)c1c(O)c3c(c(O)c1C2=O)C[C@@](O)(C(=O)CO)C[C@@H]3OC1CC(N)CC(C)O1` (stereo partly drawn), the T/C (endpoint: median tumor weight (est.), dose: 0.75 mg/kg/injection, schedule: Q07DX002 (ip), vehicle: water, higher = larger tumour) was 93 % of control, the T/C (endpoint: median tumor weight (est.), dose: 1.5 mg/kg/injection, schedule: Q07DX002 (ip), vehicle: water, higher = larger tumour) was 110 % of control and the T/C (endpoint: median tumor weight (est.), dose: 3.0 mg/kg/injection, schedule: Q07DX002 (ip), vehicle: water, higher = larger tumour) was 25 % of control.
In the case of `O=c1cc(CCl)[nH]nc1CCl`, the T/C (endpoint: median tumor weight (est.), dose: 3.12 mg/kg/injection, schedule: Q07DX002 (ip), vehicle: saline with Tween-80, higher = larger tumour) was 119 % of control, the T/C [3] was 91 % of control and the T/C [4] was 93 % of control.
With `C[C@@H]1C[C@@H]([C@H](O)CC2CC(=O)NC(=O)C2)C(=O)[C@@H](C)C1` the T/C [1] was 162 % of control, the T/C [5] was 90 % of control and the T/C [2] was 60 % of control.
For `Cc1cc(NCCN(C(C)C)C(C)C)nc(/N=C(\N)Nc2ccc(Cl)c(C(F)(F)F)c2)n1`, the T/C (endpoint: median tumor weight (est.), dose: 2.5 mg/kg/injection, schedule: Q07DX002 (ip), vehicle: Klucel (hydroxypropylcellulose) (HPC), higher = larger tumour) was 89 % of control, the T/C (endpoint: median tumor weight (est.), dose: 10.0 mg/kg/injection, schedule: Q07DX002 (ip), vehicle: Klucel (hydroxypropylcellulose) (HPC), higher = larger tumour) was 82 % of control and the T/C (endpoint: median tumor weight (est.), dose: 20.0 mg/kg/injection, schedule: Q07DX002 (ip), vehicle: Klucel (hydroxypropylcellulose) (HPC), higher = larger tumour) was 95 % of control. For the same compound, the T/C (endpoint: median tumor weight (est.), dose: 40.0 mg/kg/injection, schedule: Q07DX002 (ip), vehicle: Klucel (hydroxypropylcellulose) (HPC), higher = larger tumour) was 67 % of control.
`Cc1cc2cc3cc(C)c(N)cc3nc2cc1N` was tested, and the T/C [3] was 95 % of control, the T/C [4] was 109 % of control and the T/C [1] was 54 % of control. The T/C [5] was 89 % of control.
With `C=CCc1cn(C2CC(O)C(CO)O2)c(=O)[nH]c1=O` (stereo not drawn) the T/C (endpoint: median tumor weight (est.), dose: 25.0 mg/kg/injection, schedule: Q07DX002 (ip), vehicle: saline, higher = larger tumour) was 85 % of control, the T/C (endpoint: median tumor weight (est.), dose: 50.0 mg/kg/injection, schedule: Q07DX002 (ip), vehicle: saline, higher = larger tumour) was 78 % of control and the T/C (endpoint: median tumor weight (est.), dose: 100.0 mg/kg/injection, schedule: Q07DX002 (ip), vehicle: saline, higher = larger tumour) was 62 % of control and 65 % of control.
With `O=C(O)CCCc1ccc(N(CCCl)CCCl)cc1` the T/C (endpoint: median tumor weight (est.), dose: 7.5 mg/kg/injection, schedule: Q07DX003 (ip), vehicle: saline with Tween-80, higher = larger tumour) was 103 % of control, the T/C (endpoint: median tumor weight (est.), dose: 15.0 mg/kg/injection, schedule: Q07DX002 (ip), vehicle: Klucel (hydroxypropylcellulose) (HPC), higher = larger tumour) was 62 % of control and 72 % of control and 82 % of control and the T/C (endpoint: median tumor weight (est.), dose: 15.0 mg/kg/injection, schedule: Q07DX003 (ip), vehicle: saline with Tween-80, higher = larger tumour) was 37 % of control. The T/C (endpoint: median tumor weight (est.), dose: 30.0 mg/kg/injection, schedule: Q07DX003 (ip), vehicle: saline with Tween-80, higher = larger tumour) was 62 % of control and the T/C (endpoint: median tumor weight (est.), dose: 60.0 mg/kg/injection, schedule: Q07DX002 (ip), vehicle: Klucel (hydroxypropylcellulose) (HPC), higher = larger tumour) was 69 % of control.
